Measurements from US20120283303A1, “USE OF N-AMINOIMIDAZOLE CYTOPROTECTIVE COMPOUNDS FOR TREATING CELL DEATH AND/OR GSK-3 MEDIATED DISEASES” (K.U.LEUVEN RESEARCH AND DEVELOPMENT, priority 2006, published 2012).
In brackets after ≈: the same amount, converted by molar mass.

Columns and labels:
p300 (H3 peptide) = target: T1, p300 (H3 peptide) (Homo sapiens, UniProt Q09472); assay: Radiometric enzyme activity assay, p300 (H3 peptide); format: biochemical; conditions: 5 μg/ml NR-818, 10 μM ATP
T1 construct: purchased Upstate Biotechnology
Method: (§1) GSK-3 were assayed for their ability to phosphorylate the appropriate peptide/protein substrate in the presence of 5 μg/ml NR-818 and 10 μM ATP. Using the direct radiometric approach, kinase activities were determined and expressed as % activity compared to the untreated control (Upstate Biotechnology, Lake Placid, N.Y.). Activities are given as the mean of duplicate determinations relative to control incubations in which the inhibitor was substituted with DMSO. In the following table 1 providing results for NR818, the following abbreviations are used: • CDK, cyclin-dependent kinase; • CK, casein kinase; • eEF-2K, eukaryotic elongation factor-2 kinase; • JNK, c-Jun N-terminal kinase; • MAPK, mitogen-activated protein kinase; • PKC, protein kinase C; and • PI 3-kinase, phosphatidylinositol 3-kinase.

P/CAF (H3 peptide) = target: T2, P/CAF (H3 peptide) (Homo sapiens, UniProt Q92831); assay: Radiometric enzyme activity assay, P/CAF (H3 peptide); format: biochemical; conditions: 5 μg/ml NR-818, 10 μM ATP
T2 construct: purchased Upstate Biotechnology
Method: as §1

CDK2/cyclinE = target: T3, CDK2/cyclinE (Homo sapiens, UniProt P24941); assay: Radiometric kinase activity assay; format: biochemical; conditions: 5 μg/ml NR-818, 10 μM ATP
T3 construct: purchased Upstate Biotechnology
Method: as §1

CDK9/cyclinT1 = target: T4, CDK9/cyclinT1 (Homo sapiens, UniProt P50750); assay: Radiometric kinase activity assay; format: biochemical; conditions: 5 μg/ml NR-818, 10 μM ATP
T4 construct: purchased Upstate Biotechnology
Method: as §1

M17-TAU P301L cells = assay: TAU cytotoxicity (LDH leakage) in retinoic acid incubated M17-TAU P301L cells; format: cell-based, human; conditions: Homo sapiens, 168 h, reduction of LDH activity of retinoic acid incubated M17-TAU P301L cells, 7 days; read-out: IC50
Excerpt: An TAU expression plasmid was constructed by sub-cloning the cDNA of human TAU-P301L (encoding for TAU with proline 301 substituted by a leucine residue) into mammalian expression vector pcDNA3.1 resulting in plasmid pcDNA3.1-TAU P301L. Plasmids pcDNA3.1 and pcDNA3.1-TAU P301L were transfected to human neuroblastoma cells ([…]; ATCC No. CRL-2267) and independent clonal lines with the plasmids stably integrated into the genome were selected. […] Expression of the TAU P301L genes in the cell lines was confirmed by Western analysis.
In degenerated or dead cells, lactate dehydrogenase (LDH) is leaked out of the cells into the extracellular environment due to a loss of plasma-membrane integrity. This principle was used to determine cytotoxicity by quantifying the level of leaked LDH into the growth medium.
The detailed method for determining TAU cytotoxicity was as follows: From appropriate precultures of M17-3.1 and M17-TAU(P301L) cells were seeded at 2500 cells/cm2 in Optimem Reduced Serum without phenol red (Gibco, Cat. 31985-047) supplemented with 1% fetal calf serum, 1 mM sodium pyruvate, 1× non-essential amino acids, 500 μg/ml G418 0.5× antibiotic/antimycotic. After 3 hours of incubation at 37° C./5% CO2 1 volume of Optimem Reduced Serum (same as described above; except without fetal calf serum) supplemented with 2.5 μM retinoic acid (RA) was added. The cells were further incubated for 7 days. Subsequently, LDH activity was determined using Promega Cytotox 96 Non-Radioactive cytotoxicity assay, (Cat. G1780) according the supplier's instructions.
The M17-TAU P301L cell line made it possible to assess the ability of the compounds of this invention to counteract TAU cytotoxicity. […] Potency of the relevant compounds was determined by testing them at different concentrations ranging from non-effective (thus at a relatively low concentration) to an effective concentration for their ability to reduce LDH activity of retinoic acid incubated M17-TAU P301L cells.

motor neurons = assay: Basal survival of motor neurons in co-culture on glial feeder layer; format: cell-based, Wistar rats; conditions: FIG. 1A
Method: Cell cultures: Primary motor neuron cultures were prepared from Wistar rats as follows. Spinal cords were dissected from E14 embryos and collected in Hanks' Balanced Salt Solution (HBSS; Gibco Invitrogen, Grand Island, N.Y). Ventral cords were minced and digested for 15 minutes at 37° C. in 0.05% trypsin in HBSS. The solution was then replaced with medium A (L15 (Sigma, St.-Louis, Mo.) supplemented with glucose, progesterone, insulin, putrescine, conalbumin, sodium selenite, penicillin, streptomycin and 2% horse serum) containing 0.4% BSA and 20 μg/ml DNase and the tissue was dissociated by trituration. The resulting single cell suspension was layered on a 6.8% (weight/volume in L15) optiprep cushion (one spinal cord per tube) and centrifuged at 500 g for 15 minutes. […] To remove debris, both fractions were resuspended in medium A and centrifuged for 20 minutes at 75 g on a 4% BSA cushion. For co-cultures, 30,000 motor neurons of the F1 fraction were seeded on a glial feeder layer. Glial feeder layers were prepared by plating F2 cells in 35 mm dishes. After 4 weeks in vitro, cell division was halted by exposure to 10^−5 M cytosine arabinoside. […]
Exposure experiments: After 1 day in culture NAIM was added to the culture medium at different concentrations. […] In the experiment in which the effect of fresh medium was evaluated, the culture medium was replaced in total every day. […]

T1 sequence (Q09472 whole entry): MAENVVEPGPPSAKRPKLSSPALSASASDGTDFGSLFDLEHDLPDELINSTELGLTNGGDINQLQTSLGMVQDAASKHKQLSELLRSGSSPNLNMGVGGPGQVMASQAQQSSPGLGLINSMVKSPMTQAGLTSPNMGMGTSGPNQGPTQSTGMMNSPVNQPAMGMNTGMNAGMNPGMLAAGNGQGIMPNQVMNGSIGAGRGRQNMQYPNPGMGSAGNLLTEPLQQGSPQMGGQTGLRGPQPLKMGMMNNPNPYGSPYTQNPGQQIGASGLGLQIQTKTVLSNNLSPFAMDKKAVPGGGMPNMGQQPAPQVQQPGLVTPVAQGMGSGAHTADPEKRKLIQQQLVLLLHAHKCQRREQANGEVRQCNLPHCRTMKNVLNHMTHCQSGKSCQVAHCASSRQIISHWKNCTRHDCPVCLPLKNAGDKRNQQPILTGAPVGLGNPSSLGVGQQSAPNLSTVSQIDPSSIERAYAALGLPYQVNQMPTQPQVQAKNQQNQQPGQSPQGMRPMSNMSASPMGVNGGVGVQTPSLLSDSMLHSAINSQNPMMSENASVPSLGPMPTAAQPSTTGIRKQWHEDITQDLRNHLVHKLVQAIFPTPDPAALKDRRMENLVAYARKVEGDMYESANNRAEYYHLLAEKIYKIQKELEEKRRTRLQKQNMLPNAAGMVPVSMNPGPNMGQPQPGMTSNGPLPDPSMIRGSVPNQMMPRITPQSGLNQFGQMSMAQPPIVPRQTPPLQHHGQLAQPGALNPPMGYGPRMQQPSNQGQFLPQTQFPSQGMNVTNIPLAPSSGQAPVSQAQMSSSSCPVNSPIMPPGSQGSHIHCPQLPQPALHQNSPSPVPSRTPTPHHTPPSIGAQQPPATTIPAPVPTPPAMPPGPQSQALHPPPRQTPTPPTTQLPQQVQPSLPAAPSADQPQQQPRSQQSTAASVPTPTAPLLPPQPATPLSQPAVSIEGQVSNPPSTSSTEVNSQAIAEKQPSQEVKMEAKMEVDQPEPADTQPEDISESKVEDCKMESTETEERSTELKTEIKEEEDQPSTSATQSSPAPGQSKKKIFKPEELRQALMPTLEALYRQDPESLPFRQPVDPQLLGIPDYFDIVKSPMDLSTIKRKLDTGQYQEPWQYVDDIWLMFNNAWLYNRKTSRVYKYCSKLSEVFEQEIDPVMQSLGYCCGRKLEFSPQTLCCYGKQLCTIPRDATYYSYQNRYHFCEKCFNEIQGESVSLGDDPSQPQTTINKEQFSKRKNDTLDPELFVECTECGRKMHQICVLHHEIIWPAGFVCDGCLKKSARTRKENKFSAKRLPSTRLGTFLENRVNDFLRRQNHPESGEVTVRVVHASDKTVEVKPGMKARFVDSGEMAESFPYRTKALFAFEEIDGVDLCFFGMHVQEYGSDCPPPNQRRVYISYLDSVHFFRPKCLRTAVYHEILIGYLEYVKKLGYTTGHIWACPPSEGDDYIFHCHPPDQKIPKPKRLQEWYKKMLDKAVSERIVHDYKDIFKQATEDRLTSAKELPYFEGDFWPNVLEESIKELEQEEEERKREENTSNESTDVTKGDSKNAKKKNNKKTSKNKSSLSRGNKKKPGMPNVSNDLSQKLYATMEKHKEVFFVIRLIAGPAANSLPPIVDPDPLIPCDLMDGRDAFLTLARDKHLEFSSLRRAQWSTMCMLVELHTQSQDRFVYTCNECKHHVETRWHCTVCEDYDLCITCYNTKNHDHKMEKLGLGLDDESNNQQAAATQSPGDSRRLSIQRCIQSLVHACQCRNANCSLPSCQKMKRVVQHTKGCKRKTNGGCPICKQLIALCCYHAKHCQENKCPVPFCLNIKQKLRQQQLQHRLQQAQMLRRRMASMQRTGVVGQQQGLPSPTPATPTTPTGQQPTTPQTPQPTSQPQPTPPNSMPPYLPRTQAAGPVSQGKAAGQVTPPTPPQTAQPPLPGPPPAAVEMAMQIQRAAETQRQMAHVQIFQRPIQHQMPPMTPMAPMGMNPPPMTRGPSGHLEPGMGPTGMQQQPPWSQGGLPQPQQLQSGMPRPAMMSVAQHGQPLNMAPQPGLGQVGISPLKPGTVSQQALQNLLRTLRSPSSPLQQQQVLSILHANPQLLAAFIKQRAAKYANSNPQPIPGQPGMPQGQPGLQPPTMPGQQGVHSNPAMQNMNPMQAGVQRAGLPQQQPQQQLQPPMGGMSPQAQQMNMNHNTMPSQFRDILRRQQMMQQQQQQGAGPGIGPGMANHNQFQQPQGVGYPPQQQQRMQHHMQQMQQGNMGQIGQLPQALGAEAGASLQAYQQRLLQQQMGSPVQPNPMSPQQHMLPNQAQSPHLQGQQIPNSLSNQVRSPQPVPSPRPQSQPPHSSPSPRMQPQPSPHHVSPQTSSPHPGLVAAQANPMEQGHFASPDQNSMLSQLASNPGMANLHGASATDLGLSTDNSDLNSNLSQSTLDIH
T2 sequence (Q92831 whole entry): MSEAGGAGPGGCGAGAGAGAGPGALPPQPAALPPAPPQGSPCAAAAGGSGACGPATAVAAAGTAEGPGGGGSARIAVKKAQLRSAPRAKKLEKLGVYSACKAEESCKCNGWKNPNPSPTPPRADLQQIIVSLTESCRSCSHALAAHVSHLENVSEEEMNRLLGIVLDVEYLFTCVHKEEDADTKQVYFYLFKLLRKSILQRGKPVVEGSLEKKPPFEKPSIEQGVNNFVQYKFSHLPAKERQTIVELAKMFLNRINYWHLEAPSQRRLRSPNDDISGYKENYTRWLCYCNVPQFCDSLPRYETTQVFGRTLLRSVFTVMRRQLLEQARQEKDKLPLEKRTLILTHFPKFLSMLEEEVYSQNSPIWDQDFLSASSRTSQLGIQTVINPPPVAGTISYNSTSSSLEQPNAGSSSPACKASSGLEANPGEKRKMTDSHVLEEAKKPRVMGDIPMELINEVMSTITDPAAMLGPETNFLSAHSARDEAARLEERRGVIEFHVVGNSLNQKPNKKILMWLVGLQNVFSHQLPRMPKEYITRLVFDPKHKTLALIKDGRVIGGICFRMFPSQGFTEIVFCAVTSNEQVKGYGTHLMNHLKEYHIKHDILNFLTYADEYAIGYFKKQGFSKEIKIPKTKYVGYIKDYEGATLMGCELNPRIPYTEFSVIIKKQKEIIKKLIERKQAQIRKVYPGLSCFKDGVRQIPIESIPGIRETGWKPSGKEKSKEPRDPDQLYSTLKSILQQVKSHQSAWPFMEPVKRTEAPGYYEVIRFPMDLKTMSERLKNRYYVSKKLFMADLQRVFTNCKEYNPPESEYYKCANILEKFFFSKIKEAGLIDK
T4 sequence (P50750 whole entry): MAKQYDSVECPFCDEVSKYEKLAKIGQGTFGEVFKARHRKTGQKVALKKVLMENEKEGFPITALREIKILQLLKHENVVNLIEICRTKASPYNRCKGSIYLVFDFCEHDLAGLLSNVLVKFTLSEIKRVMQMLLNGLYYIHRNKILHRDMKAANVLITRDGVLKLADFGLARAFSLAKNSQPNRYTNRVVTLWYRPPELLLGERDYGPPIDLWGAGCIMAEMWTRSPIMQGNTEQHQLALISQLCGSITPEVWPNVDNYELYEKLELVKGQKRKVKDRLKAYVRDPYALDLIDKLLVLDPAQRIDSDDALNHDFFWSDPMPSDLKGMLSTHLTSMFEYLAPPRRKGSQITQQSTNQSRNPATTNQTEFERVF
T4 sequence (O60563 whole entry partner): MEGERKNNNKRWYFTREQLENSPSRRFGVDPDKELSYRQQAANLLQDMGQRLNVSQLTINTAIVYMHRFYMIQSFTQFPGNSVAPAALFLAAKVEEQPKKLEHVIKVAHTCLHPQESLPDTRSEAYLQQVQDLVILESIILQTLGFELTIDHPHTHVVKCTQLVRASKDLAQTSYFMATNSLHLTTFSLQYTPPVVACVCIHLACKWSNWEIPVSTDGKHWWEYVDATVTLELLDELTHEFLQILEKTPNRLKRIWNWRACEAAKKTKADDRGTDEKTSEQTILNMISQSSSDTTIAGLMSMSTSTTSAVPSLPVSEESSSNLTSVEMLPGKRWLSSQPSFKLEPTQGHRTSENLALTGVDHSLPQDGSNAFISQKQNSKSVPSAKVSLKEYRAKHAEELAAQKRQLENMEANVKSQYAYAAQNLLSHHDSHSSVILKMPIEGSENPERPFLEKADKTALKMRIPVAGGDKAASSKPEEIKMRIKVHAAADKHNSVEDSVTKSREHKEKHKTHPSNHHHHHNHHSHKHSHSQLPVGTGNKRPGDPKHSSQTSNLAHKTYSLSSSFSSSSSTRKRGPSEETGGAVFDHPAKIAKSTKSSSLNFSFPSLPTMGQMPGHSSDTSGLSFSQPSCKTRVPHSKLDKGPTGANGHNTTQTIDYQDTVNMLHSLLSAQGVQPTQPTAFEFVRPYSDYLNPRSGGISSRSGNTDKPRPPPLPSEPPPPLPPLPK

Structure (SMILES): Cc1nc(S)n(Nc2cccc3ccccc23)c1-c1ccccc1 [HER/NR818, 4-Methyl-1-(naphthalen-1-ylamino)-5-phenyl-1,3-dihydro-imidazole-2-thione]
- Activity (% of control) (p300 (H3 peptide)): 88 % of control
- Activity (% of control) (P/CAF (H3 peptide)): 99 % of control
- Activity (% of control) (CDK2/cyclinE): 101 % of control
- Activity (% of control) (CDK9/cyclinT1): 100 % of control
- IC50 (M17-TAU P301L cells): 0.013 µg/mL (≈ 0.0392 µM)
- basal survival of motor neurons (motor neurons): significant increase in the basal survival
